Experiment: xn = mol fraction of the nth substance listed
Settings: 101 kPa, Liquid; for mass density: Vibrating tube method; for viscosity: Falling or rolling sphere viscometry

CC(C)CO [2-methyl-1-propanol] + CCC(C)O
Settings	mass density [kg/m3]	viscosity [mPa·s]
303.15 K, x2 = 0.1009	794.484	–
303.15 K, x2 = 0.2	794.891	–
303.15 K, x2 = 0.3008	795.309	–
303.15 K, x2 = 0.4	795.723	–
303.15 K, x2 = 0.5002	796.151	–
303.15 K, x2 = 0.5999	796.585	–
303.15 K, x2 = 0.7004	797.029	–
303.15 K, x2 = 0.8007	797.475	–
303.15 K, x2 = 0.9005	797.918	–
308.15 K, x2 = 0.1009	790.501	2.443
308.15 K, x2 = 0.2	790.872	2.386
308.15 K, x2 = 0.3008	791.253	2.337
308.15 K, x2 = 0.4	791.633	2.292
308.15 K, x2 = 0.5002	792.024	2.248
308.15 K, x2 = 0.5999	792.423	2.206
308.15 K, x2 = 0.7004	792.831	2.168
308.15 K, x2 = 0.8007	793.242	2.139
308.15 K, x2 = 0.9005	793.65	2.127
313.15 K, x2 = 0.1009	786.45	2.107
313.15 K, x2 = 0.2	786.78	2.053
313.15 K, x2 = 0.3008	787.122	2.005
313.15 K, x2 = 0.4	787.465	1.962
313.15 K, x2 = 0.5002	787.818	1.92
313.15 K, x2 = 0.5999	788.177	1.881
313.15 K, x2 = 0.7004	788.546	1.845
313.15 K, x2 = 0.8007	788.917	1.816
313.15 K, x2 = 0.9005	789.288	1.804
318.15 K, x2 = 0.1009	782.34	1.824
318.15 K, x2 = 0.2	782.624	1.772
318.15 K, x2 = 0.3008	782.922	1.727
318.15 K, x2 = 0.4	783.222	1.685
318.15 K, x2 = 0.5002	783.533	1.646
318.15 K, x2 = 0.5999	783.848	1.608
318.15 K, x2 = 0.7004	784.171	1.575
318.15 K, x2 = 0.8007	784.497	1.551
318.15 K, x2 = 0.9005	784.827	1.54
323.15 K, x2 = 0.1009	778.155	1.59
323.15 K, x2 = 0.2	778.391	1.544
323.15 K, x2 = 0.3008	778.641	1.5
323.15 K, x2 = 0.4	778.895	1.46
323.15 K, x2 = 0.5002	779.158	1.422
323.15 K, x2 = 0.5999	779.423	1.387
323.15 K, x2 = 0.7004	779.696	1.357
323.15 K, x2 = 0.8007	779.974	1.336
323.15 K, x2 = 0.9005	780.258	1.326
328.15 K, x2 = 0.1009	773.896	1.393
328.15 K, x2 = 0.2	774.077	1.35
328.15 K, x2 = 0.3008	774.275	1.309
328.15 K, x2 = 0.4	774.479	1.27
328.15 K, x2 = 0.5002	774.689	1.235
328.15 K, x2 = 0.5999	774.903	1.204
328.15 K, x2 = 0.7004	775.122	1.178
328.15 K, x2 = 0.8007	775.348	1.161
328.15 K, x2 = 0.9005	775.581	1.152
333.15 K, x2 = 0.1009	769.551	1.225
333.15 K, x2 = 0.2	769.674	1.186
333.15 K, x2 = 0.3008	769.816	1.148
333.15 K, x2 = 0.4	769.965	1.112
333.15 K, x2 = 0.5002	770.119	1.079
333.15 K, x2 = 0.5999	770.277	1.051
333.15 K, x2 = 0.7004	770.441	1.029
333.15 K, x2 = 0.8007	770.611	1.014
333.15 K, x2 = 0.9005	770.793	1.006
338.15 K, x2 = 0.1009	765.116	1.082
338.15 K, x2 = 0.2	765.18	1.047
338.15 K, x2 = 0.3008	765.264	1.012
338.15 K, x2 = 0.4	765.355	0.9794
338.15 K, x2 = 0.5002	765.452	0.9497
338.15 K, x2 = 0.5999	765.551	0.9246
338.15 K, x2 = 0.7004	765.654	0.9053
338.15 K, x2 = 0.8007	765.765	0.8922
338.15 K, x2 = 0.9005	765.89	0.8861
343.15 K, x2 = 0.1009	760.581	0.9613
343.15 K, x2 = 0.2	760.585	0.9301
343.15 K, x2 = 0.3008	760.608	0.8988
343.15 K, x2 = 0.4	760.64	0.8691
343.15 K, x2 = 0.5002	760.676	0.8429
343.15 K, x2 = 0.5999	760.714	0.8207
343.15 K, x2 = 0.7004	760.754	0.8035
343.15 K, x2 = 0.8007	760.802	0.7921
343.15 K, x2 = 0.9005	760.867	0.7862

From the NIST ThermoML archive (doi:10.1021/je400423u)
